These results are taken from patent US20040091933A1, “Methods for genetic interpretation and prediction of phenotype” (priority 2003, published 2004).

This experiment concerns yeast. Description: Comparison of the transcript profile of clotrimazole-treated yeast with landmark transcript profiles of yeast mutants (correlation coefficient r). Type of experiment: cell-based. To be noted: transcript abundances relative to wild-type. How it is done: FIG. 2(a-f) illustrates the correlation between the transcriptional response profile of yeast treated with clotrimazole and the transcriptional response profiles of yeast with perturbations in SWI4, RPD3, CNA1 CNA2, HMG2 and ERG11 genes. A straight line (higher correlation coefficient, r) indicates the greatest similarity.
In a preferred embodiment, the similarity between profiles is measured by a weighted correlation coefficient, r, given by Equation 4: [formula]
xik is […] and xjk is qjk/σjk, where qik and qjk are the logarithms of the expression ratios between the perturbed and baseline conditions for gene k in profiles i and j, respectively, and σik and σjk are the expected root mean square uncertainties in the measurements of qik and qjk, respectively. This is an optimally-weighted measure of correlation between two profiles, given the error estimate, σ, on each data point.
In many cases, the particular gene in the pathway that is responsible for a particular phenotype can be identified. […]

Each structure is given as a SMILES string.

On to `Clc1ccccc1C(c1ccccc1)(c1ccccc1)n1ccnc1` [clotrimazole], for which the “correlation coefficient r between clotrimazole transcriptional response and landmark profile” value is, setting by setting: (landmark: yeast having a disruption of the ERG11 gene (FIG. 2f)) 0.96; (landmark: yeast having a disruption of the HMG2 gene (FIG. 2e)) 0.83.
